Source: patent US20250369050A1, “METHODS AND COMPOSITIONS RELATED TO ASSESSMENT AND TREATMENT OF KIDNEY DISEASE” (Board of Regents, The University of Texas System, priority 2022, published 2025)
Where two headings read alike, the source gives them in different places. Blank lines part the entries; values can stand above or below the compound they belong to.

Assays:
[1] = test system: human proximal tubular cells (HK2); assay: ATP generation by Seahorse analysis in HK2 cells exposed to adenine; type: cell-based
kidney cells [2] = assay: Adenine toxicity to kidney cells (FIG. 13); type: cell-based
kidney tubular cells = assay: Adenine stimulation of extracellular matrix molecules in kidney tubular cells; type: cell-based
mTOR pathway = assay: Adenine-induced stimulation of mTOR pathway (P-S6K) in tubular cells (FIG. 28); type: cell-based; conditions: adenine challenge
Description: The downstream pathways stimulated by adenine are PI3Kinase, AKT and mTOR (FIG. 28). […] Once mTOR is inhibited the downstream effect of adenine to stimulate matrix accumulation was reduced (FIG. 19).

mice = assay: Adenine administration to mice (FIG. 30, 31); type: in vivo, mouse
Description: FIG. 30. Adenine administration to mice increases serum sTNFR1 (A), plasma KIM-1 (B). (n=12 in control group and n=7 in adenine treated group, *p<0.05, **p<0.01, ***p<0.001, […] vs control by t-test or One-way ANOVA).
FIG. 31. Adenine administration to mice increases kidney (A) and heart (B) hypertrophy and mTOR mediated matrix molecules in the kidney (C). Quantitative assessment of phosphor-S6 kinase as a measure of mTOR (D), fibronectin/-b-actin (E) and collagen type 1 alpha 2 chain (F). (n=12 in control group and n=7 in adenine treated group, *p<0.05, **p<0.01, ***p<0.001, […] vs control by t-test or One-way ANOVA).
Patients with type 1 diabetes (n=8) or type 2 diabetes (n=8) have an increase in tissue levels of adenine in their kidney biopsies as compared to healthy controls (n=5)(FIG. 29). Adenine administration is causative of the major manifestations of diabetic kidney disease in a mouse model, including serum soluble tumor necrosis factor receptor-1 (sTNFR1) and plasma kidney injury […] (KIM1) (FIG. 30). Adenine also stimulates kidney hypertrophy and heart hypertrophy (FIG. 31) as well as kidney phosphor-S6-kinase (marker of mTOR activity), kidney fibronectin and kidney collagen type 1 alpha-2 chain (FIG. 31). An inhibitor of MTAP (DADMe-ImmA 10 mg/kg/d in drinking water for 8 weeks) reduces urine ACR, urine hydrogen peroxide (urine H2O2) and urine collagen in a mouse model of diabetic kidney disease (db/db mouse) (FIG. 32).

[3] = test system: mice challenged with adenine; assay: In vivo IRsiRNA #1 with adenine challenge in drinking water in mice (FIG. 35); set-up: species or system mouse
Experimental: (§1) FIG. 35. In vivo administration of IRsiRNA #1 reduced IR specifically in mouse kidney and prevented adenine-induced rise in BUN levels in mice. Mice were administered vehicle or kidney targeting IRsiRNA #1 prior to being challenged with adenine (5 mM) in the drinking water for 4 days.
as §1, with “In FIG.” for “FIG.”, “35, in” for “35. In”, “Blood Urea Nitrogen (BUN)” for “BUN”

[4] = test system: patients with hyperfiltration; assay: Urine adenine in type 1 diabetic patients with hyperfiltration treated with empagliflozin (FIG. 23); type: in vivo, human; conditions: high risk patients with hyperfiltration, after 8 weeks of treatment
Description: FIG. 23. Empagliflozin reduces urine adenine levels in patients with hyperfiltration. Hyperfilterers (red lines and dots) and normofilterers (blue lines and dots). Overall effect of treatment (Visit 3 and 4 vs. Visit 12 and 13) on least square mean changes to log-transformed adenine levels is reported. Significant p-values stated. *p<0.05, **p<0.01.

kidney cells [5] = assay: Protection of kidney cells from cell death by MTAP inhibitor (FIG. 18); type: cell-based; conditions: cell stress due to reduction of MDM2
[6] = test system: mice undergoing ischemia-reperfusion injury; assay: Ischemia-reperfusion injury in mice, BUN (FIG. 25); type: in vivo, mouse; conditions: inhibitor given once before ischemia 30 min and reperfusion, BUN 24 h later
Experimental: FIG. 25. MTAP inhibitor DADMe-ImmA given once before ischemia-reperfusion injury prevents an increase in BUN levels in mice undergoing ischemia-reperfusion injury. Mice underwent ischemia for 30m followed by reperfusion and 24 h later, the BUN was measured.

db/db mice [7] = assay: MTAP inhibitor for 8 weeks in db/db mice (FIG. 32, 33); type: in vivo, mouse
Experimental: FIG. 32. […] Control (db/m) and diabetic (db/db) mice were treated from week 12 to week 20 with MTAP inhibitor (10 mg/kg/day in drinking water) and 24 h urine samples were collected and measured for albumin/creatinine ratio (A), hydrogen peroxide/creatinine ratio (B) and collagen/creatinine ratio (C). (*p<0.05, ANOVA, n=5-6/group)
FIG. 33. […] Control (db/m) and diabetic (db/db) mice were treated from week 12 to week 20 with MTAP inhibitor (10 mg/kg/day in drinking water) and kidney weight was standardized per tibia length (A). Kidney cortex was immunoblotted for fibronectin and laminin y1 and standardized for b-actin with quantitative data shown in (B) and (C), respectively. (*p<0.05, ANOVA, n=5-6/group)

[8] = test system: Kidney tubules (MCT) cells; assay: Adenine-induced fibronectin accumulation in MCT cells (FIG. 19); type: cell-based, mouse
Experimental: FIG. 19. Effect of Rapamycin and NaHS on Adenine. […] A. Kidney tubules (MCT) cells were pre-incubated with 10 nM of rapamycin for 30 min followed by incubation with 20 μM of adenine for 15 min. B. MCT cells were incubated with 20 μM of adenine and 250 μM NaHS for 15 min.

db/db mice [9] = test system: db/db mice
Experimental: FIG. 26. […] NaHS administered for 4 weeks to db/db mice and db/m mice and MTAP/-b-actin and fibronectin/b-actin levels were evaluated by immunoblotting. Urine ACR was measured at end of 4-week period of NaHS administration.

[10] = test system: human insulin receptor mRNA; assay: Insulin receptor mRNA knockdown in HK2 cells by qRTPCR (FIG. 36); type: cell-based; conditions: 96 h after transfection, vs control siRNA
Experimental: FIG. 36. siRNA to Human and Pig Insulin receptor is effective to reduce mRNA for Insulin receptor in human kidney cells. Human kidney (HK2) proximal tubular cells were transfected with siRNA (4 ul from 10 um stock) using RNAiMax (6 ul in optiMEM) and plated on 6 well plates. After 48 h, the media was replaced with fresh media. After 96 h of the transfection, total RNA was isolated and subjected to cDNA synthesis followed by qRTPCR.
In this non-limiting example, siRNA targeting human/pig insulin receptor mRNA can reduce human insulin receptor in human tubular cells. (FIG. 36). In FIG. 36, siRNA to human and pig insulin receptor is effective to reduce mRNA for insulin receptor in human kidney cells. Human kidney (HK2) proximal tubular cells were transfected with siRNA (4 ul from 10 um stock) using RNAiMax (6 ul in optiMEM) and plated on 6 well plates. After 48 h, the media was replaced with fresh media. After 96 h of the transfection, total RNA was isolated and subjected to cDNA synthesis followed by qRTPCR.

[11] = test system: mouse insulin receptor mRNA; assay: Insulin receptor mRNA knockdown in MCT cells by qRTPCR (FIG. 34); type: cell-based; conditions: reverse transfection, 72 h
Experimental: (§2) FIG. 34. siRNAs to insulin receptor (IR) based on sequence in mouse and rat reduces IR in mouse kidney cells. Mouse cortical tubular (MCT) cells were reverse transfected with siRNAs targeting mouse and rat insulin receptor mRNA (m/r IRsiRNA #1 and m/r IR siRNA #5) using RNAiMax (6 ul in optiMEM) and plated on 6 well plates. After 72 h of incubation, total RNA was isolated and subjected to cDNA synthesis followed by qRTPCR (n=6/group, ****p<0.0001).
as §2, with “34 illustrates the administration of the siRNA for the insulin receptor to mice treated with adenine reduced insulin receptor in the kidney but not in liver and prevented the increase in blood urea nitrogen levels (FIG. 35). In FIG. 34,” for “34.”

[12] = adenine administration vs control
[13] = 10 mg/kg/day in drinking water, week 12 to 20, 24 h urine
[14] = 10 mg/kg/day, 8 weeks, kidney cortex immunoblot

ATP generation ([1]; dose dependence): dose-dependently reduced ATP generation | ATP generation ([1]; high doses of adenine): complete reduction of ATP generation | kidney collagen type 1 alpha-2 chain (mice; adenine administration): stimulates | kidney fibronectin (mice; adenine administration): stimulates | kidney phosphor-S6-kinase (marker of mTOR activity) (mice; adenine administration): stimulates | plasma KIM-1 (mice; [12]): increases | serum sTNFR1 (mice; [12]): increases | elevation in BUN levels vs non-adenine group ([3]; vehicle and adenine 5 mM in drinking water for 4 days): 3 fold
Compound: Nc1ncnc2nc[nH]c12 [Adenine]
toxicity to kidney cells (kidney cells [2]): toxic to kidney cells | Type I collagen (kidney tubular cells): rapidly stimulates Type I collagen | fibronectin production (kidney tubular cells): stimulates | S6K phosphorylation (P-S6K) (mTOR pathway): increased within minutes of adenine challenge | heart hypertrophy (mice; adenine administration): stimulates | kidney hypertrophy (mice; adenine administration): stimulates

Compound: OC[C@H]1O[C@@H](c2ccc(Cl)c(Cc3ccc(O[C@H]4CCOC4)cc3)c2)[C@H](O)[C@@H](O)[C@@H]1O [Empagliflozin]
urine adenine/creatinine levels [4]: reduces urine adenine/creatinine levels

Compound: CSC[C@H]1CN(Cc2c[nH]c3c(N)ncnc23)C[C@@H]1O [MT-DADMe-ImmA, Methylthio-DADMe-Immucillin]
protection of kidney cells from cell death (kidney cells [5]): protects kidney cells from cell death | BUN [6]: no significant increase in BUN | urine ACR (db/db mice [7]; [13]): reduces | urine H2O2 (db/db mice [7]; [13]): reduces | urine collagen (db/db mice [7]; [13]): reduces | kidney fibronectin (db/db mice [7]; [14]): reduced | kidney laminin yI (db/db mice [7]; [14]): reduced | kidney hypertrophy (db/db mice [7]; 10 mg/kg/day, 8 weeks, kidney weight per tibia length): reduced

Compound: [Na+].[SH-] [NaHS, sodium hydrogen sulfide]
adenine-induced fibronectin production ([8]; MCT cells, 20 μM adenine and 250 μM NaHS for 15 min): inhibit adenine-induced fibronectin production | adenine-induced disease causing pathways (mTOR) ([8]; kidney cells, NaHS): protects against | healing pathways (AMPK) ([8]; kidney cells, NaHS): improving healing pathways (AMPK) | MTAP/b-actin by immunoblotting (db/db mice [9]; NaHS 4 weeks, kidney): significant reduction | fibronectin/b-actin by immunoblotting (db/db mice [9]; NaHS 4 weeks, kidney): significant reduction | urine ACR (db/db mice [9]; end of 4-week NaHS administration): significant reduction

Compound: H/P IR siRNA #4: siRNA targeting human and pig IR mRNA, SEQ ID NO. 21 (+) and SEQ ID NO. 22 (−) (sense GGAAUGACCAGAGACAUCUAUGAAA; antisense UUUCAUAGAUGUCUCUGGUCAUUCCAA; listed as RNA, chemistry not fully specified)
human insulin receptor mRNA [10]: significant reduction

Compound: H/P siRNA #2: siRNA targeting human and pig IR mRNA, SEQ ID NO. 17 (+) and SEQ ID NO. 18 (−) (sense CAGUACGUCAUUCACAACAACAAGU; antisense ACUUGUUGUUGUGAAUGACGUACUGGU; listed as RNA, chemistry not fully specified)
human insulin receptor mRNA [10]: significant reduction

Compound: m/r IR siRNA #5: siRNA targeting mouse/rat IR mRNA, SEQ ID NO. 9 (+) and SEQ ID NO. 10 (−) (sense AAAUCAGUUCCUCAAAUUGACCAAU; antisense AUUGGUCAAUUUGAGGAACUGAUUUUG; listed as RNA, chemistry not fully specified)
mouse insulin receptor at mRNA level [11]: significant reduction

Compound: m/r IRsiRNA #1: siRNA targeting mouse/rat IR mRNA, SEQ ID NO. 1 (+) and SEQ ID NO. 2 (−) (sense GGCUCUGUCCGCAUCGAGAAGAAUA; antisense UAUUCUUCUCGAUGCGGACAGAGCCCC; listed as RNA, chemistry not fully specified)
mouse insulin receptor at mRNA level [11]: significant reduction | IR in mouse kidney cortex ([3]; day 4, immunoblot vs control sample): reduction of IR in mouse kidney cortex | BUN levels ([3]; siRNA before adenine 5 mM in drinking water for 4 days): no increase in BUN levels
